Measurements as given in BindingDB's records for doi:10.1016/s0960-894x(00)00456-x (Australian National University, 2001).

Target: Leucine--tRNA ligase (Staphylococcus aureus)
Assay: Compound was evaluated for its inhibitory activity against Leucyl-tRNA synthetase from staphylococcus aureus WCUH29

IC50: 186 µM
Compound: CC[C@H](C)[C@H](N)C(=O)NS(=O)(=O)CC(=O)N[C@]1(C(=O)OC)[C@@H]2CN(C)C=C(C(N)=O)[C@@H]2C[C@@H]1O [(4aR,6S,7R,7aS)-7-[2-((2S,3S)-2-Amino-3-methyl-pentanoylsulfamoyl)-acetylamino]-4-carbamoyl-6-hydroxy-2-methyl-2,4a,5,6,7,7a-hexahydro-1H-[2]pyrindine-7-carboxylic acid methyl ester]
